By melting point is commonly meant the temperature of the solid-liquid transition. The IC50 is the concentration that inhibits the measured activity by half.

One data set relates to IMR90 cells. As to the kind of experiment: In vitro wound healing activity (scrape wound, cell migration). In kind it is cell-based. Conditions: 24 hours, Compound 1 0.1, 0.5, 1 mM, Compound 3 0.05, 0.5, 1 μM. As for the experimental part: The wound healing activities of Compounds 1 and 3 were in vitro assessed by the method provided in Valster et al., Methods, 2005, 37, 208-215 and Rodriguez et al., “Methods in Molecular Biology” in Cell Migration: Developmental Methods and Protocols, vol. 294, Ed by Guan et al. Humana. Press Inc.
IMR90 cells were seeded on a six-well culture dish and grown in MEM medium with 10% FBS to confluence in the presence of serum. The growth medium (MEM with 10% FBS) was then replaced with a serum-free medium (MEM without FBS). After starved for 24 hours, wounds were made by scraping using a P1000 pipette tip. […] The wounds were observed by a phase contrast microscopy using an inverted microscope. Images were taken at areas flanking the intersections of the wounds and the marker lines at regular intervals over a period of 24 hours. These images were analyzed through a digital imaging system using Image-Pro Plus® (Media Cybernetics, Silver Spring, Md.) to determine the position of the migrating cells at the wound edges. The cell migration distance was calculated by substracting the width of the wound at each interval from its initial width.

The test system of the next data set is 5-FU-induced mucositis. Briefly: In vivo anti-mucositis activity (5-FU, buccal pouch wound). On the set-up: species or system Syrian golden hamsters. Conditions: hamster, subcutaneous once a day Day 0 to Day 5; Compound 1 36, 72, 144 mg/kg; Compound 3 0.5, 5.0, 50.0 mg/kg; dose-dependent. As for the experimental part:
Twenty young Syrian golden hamsters, 7 to 8 weeks old weighing 90 to 130 g, were numbered and randomly divided into five groups (4 hamsters each group).
Each hamster in the five groups was punched at the right buccal pouch mucosa with a skin puncher on Day 0 to give a 6 mm diameter wound. Four groups were intraperitoneally administered with 5-FU at 20 mg/kg twice at Day 0 and one group was used as a control without any treatment. […] Wounds were examined macroscopically and microscopically 0.5, 1, 2, 3, 4, 5, and 6 days after the punching. The hematological parameters, serum biochemistry, extents of inflammatory cell infiltration, sizes of hemorrhagic areas, and presence of ulcers and abscesses were recorded. After Day 6, all of the hamsters were anesthetized with isoflurane (2-chloro-2-difluoromethoxy-1,1,1-trifluoro-ethane) for macroscopic and histological analysis and Western blot analysis.

The target in data set [1] is histone deacetylase (HDAC). Briefly: HDAC inhibition assay (Fluor de Lys fluorescent assay, HeLa lysate). The data set is classed as biochemical. Conditions: mantissa in r5, exponent and unit in r6. As for the experimental part: The histone deacetylase (HDAC) activity was measured in HeLa lysate suspensions using a Fluor de Lys™ fluorescent assay system (Biomol, Enzo Life Sciences; PA, USA) with some modification as described previously (Pflum et al., 2007). In brief, HeLa lysate (1.5 μl) were preincubated in the presence of test compound or vehicle (DMSO, 0.2% v/v) at 30° C. for 10 minutes, therefore Fluor de Lys™ substrate (125 μM) was added and incubated at 37° C. under shaking for 45 minutes. Finally, the developer reagent (95 μl, 1×) was immediately added to the same aliquot of the reaction mixture for another 10 minutes. The extent of deacetylated substrate formation was monitored by a microplate fluorescence reader (Thermo Varioskan Flash, Thermofisher; MA, USA) to determine the fluorescence intensity (excitation at 360 nm, emission at 460 nm). The results were expressed as the percent inhibition of the rate of deacetylated substrate formation on the reacting interval. […] See Bieliauskas et al., Bioorg. Med. Chem. Lett., 2007, 17: 2216-2219.

The next data set has as its system COX-2. Briefly: In vitro COX-2 protein expression (Western blot). The data set is classed as cell-based. Conditions: IMR90 cells; 0.05-1.0 μM; dose-dependent. The procedure:
To detect COX-2 protein expression, Western blot analysis was performed as follows. Briefly, Compound 3-treated IMR90 cells, stimulated by wounds (scraping using a P1000 pipette tip) and non-stimulated, were collected and lysed in 1× lysis buffer. Protein concentrations of these lysed cells were measured using Bio-Rad quantification assay (Bio-Rad Laboratory, CA). Protein extracts (20 μg) were subjected to electrophoresis on a 10% SDS-PAGE and transferred to PVDF membrane. The antibody recognizing COX-2 was obtained from Epitomics (Burlingame, Calif.). The antibody recognizing β-actin was from obtained Sigma (St. Louis, Mo.). All antibodies were rabbit polyclonal antibodies except for the β-actin antibody, which was a mouse monoclonal antibody. Secondary antibodies were anti-rabbit IgG and anti-mouse IgG (horseradish-peroxidase linked antibodies), respectively (Amersham Biosciences, Piscataway, N.J.). Primary antibodies were used at a 1:1,000 dilution and secondary antibodies were used at a 1:5,000 dilution in a solution containing 5% BSA in TBS-T. Immunoreactive proteins were detected using the enhanced chemiluminescence light (ECL) detecting kit (Millipore).
For orientation: A western blot detects proteins with antibodies after separation by electrophoresis.

On to `O=C(CCCc1ccccc1)NO` [Compound 1, N-hydroxy-4-phenylbutanamide], for which the wound healing result in the data set on IMR90 cells is listed as “promoted wound healing”. Also, the “5-FU-induced mucositis in wound areas” value in the data set with 5-FU-induced mucositis was “reduced 5-FU-induced mucositis”. In turn, `CC(C)(C(=O)NO)C(O)Cc1ccccc1` (stereo not shown) [Compound 2, N,3-dihydroxy-2,2-dimethyl-4-phenylbutanamide] showed a melting point of 95 to 96 °C. As for `CC(C)(C)OC(=O)N[C@H](Cc1ccc(OCc2ccccc2)cn1)C(=O)Nc1ccc(CCCC(=O)NO)cc1` [Compound 3, (R)-tert-butyl 3-(5-(benzyloxy)pyridin-2-yl)-1-(4-(4-(hydroxylamino)-4-oxobutyl)phenylamino)-1-oxopropan-2-ylcarbamate], the wound healing result with IMR90 cells is “promoted wound healing”. Half-maximal inhibition in data set [1] (IC50) was put at 0.398 µM. Moreover, the “5-FU-induced mucositis in wound areas” value in the data set with 5-FU-induced mucositis is “reduced 5-FU-induced mucositis”. The COX-2 protein expression result in the data set with COX-2 is given as “inhibited COX-2 protein expression”. Regarding `CC(C)(C)OC(=O)NC(Cc1ccc(O)cn1)C(=O)Nc1ccc(CCCC(=O)NO)cc1` (stereo not shown) [Compound 4, tert-butyl-1-(4-(4-(hydroxyamino)-4-oxobutyl)phenylamino)-3-(5-hydroxypyridin-2-yl)-1-oxopropan-2-ylcarbamate], the melting point fell in the range of 166 to 167 °C. Further, the IC50 in data set [1] was 4.13 µM.

`NC(Cc1ccc(OCc2ccccc2)cn1)C(=O)Nc1ccc(CCCC(=O)NO)cc1` (stereo not shown) [Compound 5, 4-(4-(2-amino-3-(5-(benzyloxy)pyridin-2-yl)propanamido)phenyl)-N-hydroxybutanamide] returned a melting point greater than 300 °C.

In the case of `NC(Cc1ccc(O)cn1)C(=O)Nc1ccc(CCCC(=O)NO)cc1` (stereo not shown) [Compound 6, 4-(4-(2-amino-3-(5-hydroxypyridin-2-yl)-propanamido)phenyl)-N-hydroxybutanamide], the melting point was 230 °C (dec.). On to `CC(C)(C)OC(=O)NC(Cc1ccc(OCc2ccccc2)cn1)C(=O)NCc1ccc(C(=O)NO)cc1` (stereo not shown) [Compound 7, tert-butyl 3-(5-(benzyloxy)pyridin-2-yl)-1-(4-(hydroxycarbamoyl)benzylamino)-1-oxopropan-2-ylcarbamate], for which the melting point lay in the range of 106 to 108 °C. The compound also returned a half-maximal inhibitory concentration (IC50) in data set [1] of 1.32 µM.
